Tested on: 786-0 complex spheroids with HUVEC/MSC, growth % test/control
Assay: Anticancer human tumor 786-0 cell line growth inhibition [AhR];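 also: compound exposure lasted seven days before the read-out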
Settings: for IC50: curve of first compound; for viability, T/C: stronger effect = lower value; active = viability on the fitted dose curve at most 10% of control; inactive = the rest
How it was run: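 Spheroids combined tumor cells with HUVEC endothelial cells and human MSCs as stroma. AhR antagonists were paired with standard or investigational drugs, each dosed in half-log steps down from near clinical Cmax, or from 10 microM where Cmax was unknown.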

[1] = second compound 0.1 µM, first compound 0.000949 µM
[2] = second compound 0.1 µM, first compound 0.003 µM
[3] = second compound 0.1 µM, first compound 0.00949 µM
[4] = second compound 0.1 µM, first compound 0.03 µM
[5] = second compound 0.1 µM, first compound 0.0949 µM
[6] = second compound 0.1 µM, first compound 0.3 µM
[7] = second compound 0.316 µM, first compound 0.000949 µM
[8] = second compound 0.316 µM, first compound 0.003 µM
[9] = second compound 0.316 µM, first compound 0.00949 µM
[10] = second compound 0.316 µM, first compound 0.03 µM
[11] = second compound 0.316 µM, first compound 0.0949 µM
[12] = second compound 0.316 µM, first compound 0.3 µM
[13] = second compound 1 µM, first compound 0.000949 µM
[14] = second compound 1 µM, first compound 0.003 µM
[15] = second compound 1 µM, first compound 0.00949 µM
[16] = second compound 1 µM, first compound 0.03 µM
[17] = second compound 1 µM, first compound 0.0949 µM
[18] = second compound 1 µM, first compound 0.3 µM
[19] = second compound 3.16 µM, first compound 0.000949 µM
[20] = second compound 3.16 µM, first compound 0.003 µM
[21] = second compound 3.16 µM, first compound 0.00949 µM
[22] = second compound 3.16 µM, first compound 0.03 µM
[23] = second compound 3.16 µM, first compound 0.0949 µM
[24] = second compound 3.16 µM, first compound 0.3 µM
[25] = second compound 10 µM, first compound 0.000949 µM
[26] = second compound 10 µM, first compound 0.003 µM
[27] = second compound 10 µM, first compound 0.00949 µM
[28] = second compound 10 µM, first compound 0.03 µM
[29] = second compound 10 µM, first compound 0.0949 µM
[30] = second compound 10 µM, first compound 0.3 µM
[31] = second compound 0.1 µM, first compound 0.0316 µM
[32] = second compound 0.1 µM, first compound 0.1 µM
[33] = second compound 0.1 µM, first compound 0.316 µM
[34] = second compound 0.1 µM, first compound 1 µM
[35] = second compound 0.1 µM, first compound 3.16 µM
[36] = second compound 0.1 µM, first compound 10 µM
[37] = second compound 0.316 µM, first compound 0.0316 µM
[38] = second compound 0.316 µM, first compound 0.1 µM
[39] = second compound 0.316 µM, first compound 0.316 µM
[40] = second compound 0.316 µM, first compound 1 µM
[41] = second compound 0.316 µM, first compound 3.16 µM
[42] = second compound 0.316 µM, first compound 10 µM
[43] = second compound 1 µM, first compound 0.0316 µM
[44] = second compound 1 µM, first compound 0.1 µM
[45] = second compound 1 µM, first compound 0.316 µM
[46] = second compound 1 µM, first compound 1 µM
[47] = second compound 1 µM, first compound 3.16 µM
[48] = second compound 1 µM, first compound 10 µM
[49] = second compound 3.16 µM, first compound 0.0316 µM
[50] = second compound 3.16 µM, first compound 0.1 µM
[51] = second compound 3.16 µM, first compound 0.316 µM
[52] = second compound 3.16 µM, first compound 1 µM
[53] = second compound 3.16 µM, first compound 3.16 µM
[54] = second compound 3.16 µM, first compound 10 µM
[55] = second compound 10 µM, first compound 0.0316 µM
[56] = second compound 10 µM, first compound 0.1 µM
[57] = second compound 10 µM, first compound 0.316 µM
[58] = second compound 10 µM, first compound 1 µM
[59] = second compound 10 µM, first compound 3.16 µM
[60] = second compound 10 µM, first compound 10 µM

CC(C)CC(NC(=O)C(Cc1ccccc1)NC(=O)c1cnccn1)B(O)O (stereo not given) + Cc1ccccc1N=Nc1ccc(NC(=O)c2ccnn2C)c(C)c1
17.6 nM: IC50 (second compound 3.16 µM)
18.3 nM: IC50 (second compound 0.1 µM)
active: viability, T/C [5] 0.85% | viability, T/C [6] 0.51% | viability, T/C [11] 4.46% | viability, T/C [12] 0.43% | viability, T/C [17] 0.98% | viability, T/C [18] 2% | viability, T/C [22] 7.1% | viability, T/C [23] 0.92% | viability, T/C [24] 0.45% | viability, T/C [29] 1.78% | viability, T/C [30] 1.25%
17.4 nM: IC50 (second compound 1 µM)
17.2 nM: IC50 (second compound 10 µM)
17.9 nM: IC50 (second compound 0.316 µM)
inactive: viability, T/C [1] 96.9% | viability, T/C [2] 103% | viability, T/C [3] 103% | viability, T/C [4] 11.9% | viability, T/C [7] 103% | viability, T/C [8] 110% | viability, T/C [9] 98.6% | viability, T/C [10] 10.4% | viability, T/C [13] 106% | viability, T/C [14] 107% | viability, T/C [15] 92.4% | viability, T/C [16] 11.7% | viability, T/C [19] 98.9% | viability, T/C [20] 96.1% | viability, T/C [21] 104% | viability, T/C [25] 104% | viability, T/C [26] 106% | viability, T/C [27] 80.3% | viability, T/C [28] 21.8%

CCc1c2c(nc3ccc(O)cc13)-c1cc3c(c(=O)n1C2)COC(=O)[C@]3(O)CC + Cc1ccccc1N=Nc1ccc(NC(=O)c2ccnn2C)c(C)c1
6.1 nM: IC50 (second compound 0.1 µM) | IC50 (second compound 3.16 µM)
6.33 nM: IC50 (second compound 0.316 µM)
6.39 nM: IC50 (second compound 1 µM)
active: viability, T/C [4] 9.38% | viability, T/C [5] 3.43% | viability, T/C [6] 4.01% | viability, T/C [10] 9.77% | viability, T/C [11] 4.26% | viability, T/C [12] 3.54% | viability, T/C [16] 10.2% | viability, T/C [17] 4.47% | viability, T/C [18] 2.91% | viability, T/C [22] 8.98% | viability, T/C [23] 4.32% | viability, T/C [24] 3.54% | viability, T/C [28] 8.91% | viability, T/C [29] 4.41% | viability, T/C [30] 3.24%
inactive: viability, T/C [1] 106% | viability, T/C [2] 96.2% | viability, T/C [3] 21.1% | viability, T/C [7] 107% | viability, T/C [8] 106% | viability, T/C [9] 19.7% | viability, T/C [13] 101% | viability, T/C [14] 102% | viability, T/C [15] 22.9% | viability, T/C [19] 98.1% | viability, T/C [20] 95.6% | viability, T/C [21] 21.6% | viability, T/C [25] 89.7% | viability, T/C [26] 78.8% | viability, T/C [27] 18.1%
5.18 nM: IC50 (second compound 10 µM)

Nc1ccccc1NC(=O)c1ccc(CNC(=O)OCc2cccnc2)cc1 + Cc1ccccc1N=Nc1ccc(NC(=O)c2ccnn2C)c(C)c1
6610 nM: IC50 (second compound 3.16 µM)
inactive: viability, T/C [31] 104% | viability, T/C [32] 99.1% | viability, T/C [33] 120% | viability, T/C [34] 103% | viability, T/C [35] 94.2% | viability, T/C [36] 30.8% | viability, T/C [37] 114% | viability, T/C [38] 103% | viability, T/C [39] 106% | viability, T/C [40] 115% | viability, T/C [41] 105% | viability, T/C [42] 31.1% | viability, T/C [43] 105% | viability, T/C [44] 111% | viability, T/C [45] 105% | viability, T/C [46] 104% | viability, T/C [47] 94.3% | viability, T/C [48] 32% | viability, T/C [49] 88.1% | viability, T/C [50] 90.6% | viability, T/C [51] 92.2% | viability, T/C [52] 80.8% | viability, T/C [53] 91.4% | viability, T/C [54] 28.2% | viability, T/C [55] 88.5% | viability, T/C [56] 91.7% | viability, T/C [57] 99.2% | viability, T/C [58] 91.2% | viability, T/C [59] 75.8% | viability, T/C [60] 26.3%
5760 nM: IC50 (second compound 10 µM)
7200 nM: IC50 (second compound 1 µM)
7470 nM: IC50 (second compound 0.316 µM)
7060 nM: IC50 (second compound 0.1 µM)

Nc1ccn(C2OC(CO)C(O)C2(F)F)c(=O)n1 (stereo not given) + Cc1ccccc1N=Nc1ccc(NC(=O)c2ccnn2C)c(C)c1
active: viability, T/C [31] 8.08% | viability, T/C [32] 6.67% | viability, T/C [33] 7.73% | viability, T/C [34] 5.06% | viability, T/C [35] 7.17% | viability, T/C [36] 6.66% | viability, T/C [37] 7.8% | viability, T/C [38] 6.77% | viability, T/C [39] 5.95% | viability, T/C [40] 8.69% | viability, T/C [41] 7.54% | viability, T/C [42] 7.11% | viability, T/C [43] 6.79% | viability, T/C [44] 6.35% | viability, T/C [45] 7.35% | viability, T/C [46] 5.82% | viability, T/C [47] 7.07% | viability, T/C [48] 6.7% | viability, T/C [49] 7.91% | viability, T/C [50] 5.76% | viability, T/C [51] 6.46% | viability, T/C [52] 4.78% | viability, T/C [53] 6.9% | viability, T/C [54] 7.29% | viability, T/C [55] 9.54% | viability, T/C [56] 8.5% | viability, T/C [57] 7.09% | viability, T/C [58] 6.47% | viability, T/C [59] 5.53% | viability, T/C [60] 6.11%
< 31.6 nM: IC50 (second compound 0.1 µM) | IC50 (second compound 0.316 µM) | IC50 (second compound 1 µM) | IC50 (second compound 3.16 µM) | IC50 (second compound 10 µM)

O=C(C=Cc1cccc(S(=O)(=O)Nc2ccccc2)c1)NO + Cc1ccccc1N=Nc1ccc(NC(=O)c2ccnn2C)c(C)c1
6060 nM: IC50 (second compound 0.1 µM)
5700 nM: IC50 (second compound 3.16 µM)
inactive: viability, T/C [31] 89.2% | viability, T/C [32] 103% | viability, T/C [33] 88.4% | viability, T/C [34] 94.3% | viability, T/C [35] 87.7% | viability, T/C [36] 20.9% | viability, T/C [37] 100% | viability, T/C [38] 97.1% | viability, T/C [39] 101% | viability, T/C [40] 101% | viability, T/C [41] 86.4% | viability, T/C [42] 22.1% | viability, T/C [43] 98.2% | viability, T/C [44] 100% | viability, T/C [45] 106% | viability, T/C [46] 93.5% | viability, T/C [47] 90.7% | viability, T/C [48] 22.5% | viability, T/C [49] 85% | viability, T/C [50] 91.4% | viability, T/C [51] 85.8% | viability, T/C [52] 81.9% | viability, T/C [53] 80% | viability, T/C [54] 21.4% | viability, T/C [55] 93.5% | viability, T/C [56] 87.2% | viability, T/C [57] 85.9% | viability, T/C [58] 85.5% | viability, T/C [59] 67.3% | viability, T/C [60] 14.2%
6080 nM: IC50 (second compound 0.316 µM)
6300 nM: IC50 (second compound 1 µM)
4610 nM: IC50 (second compound 10 µM)

O=C(c1cc(Cc2n[nH]c(=O)c3ccccc23)ccc1F)N1CCN(C(=O)C2CC2)CC1 + Cc1ccccc1N=Nc1ccc(NC(=O)c2ccnn2C)c(C)c1
inactive: viability, T/C [31] 101% | viability, T/C [32] 105% | viability, T/C [33] 99.8% | viability, T/C [34] 104% | viability, T/C [35] 97% | viability, T/C [36] 104% | viability, T/C [37] 97.1% | viability, T/C [38] 101% | viability, T/C [39] 107% | viability, T/C [40] 106% | viability, T/C [41] 107% | viability, T/C [42] 101% | viability, T/C [43] 100% | viability, T/C [44] 101% | viability, T/C [45] 104% | viability, T/C [46] 97.1% | viability, T/C [47] 107% | viability, T/C [48] 99.1% | viability, T/C [49] 94.6% | viability, T/C [50] 97.9% | viability, T/C [51] 99.5% | viability, T/C [52] 97.3% | viability, T/C [53] 106% | viability, T/C [54] 94.4% | viability, T/C [55] 98.2% | viability, T/C [56] 93.8% | viability, T/C [57] 102% | viability, T/C [58] 94.9% | viability, T/C [59] 88.1% | viability, T/C [60] 87.5%
> 10000 nM: IC50 (second compound 0.1 µM) | IC50 (second compound 0.316 µM) | IC50 (second compound 1 µM) | IC50 (second compound 3.16 µM) | IC50 (second compound 10 µM)
